Experimental data taken from ChEMBL document CHEMBL1157950, “Sarcophytonolides E-H, cembranolides from the Hainan soft coral Sarcophyton latum” (J Nat Prod, 2006).
Active and inactive are the calls of the source. The rule behind the calls is not given here.

How the values were obtained:
HL-60 = test: Cytotoxicity against human HL60 cells at 20 ug/mL; type: functional, cell-based
A549 = test: Cytotoxicity against human A549 cells at 20 ug/mL; type: functional, cell-based

| Compound | Activity (HL-60) | Activity (A549) |
| --- | --- | --- |
| C/C1=C\[C@H](O)CC2=C[C@@H](OC2=O)[C@H](C(C)C)CC/C(C)=C/CC1 | inactive | inactive |
| C/C1=C\CC[C@H](C)C[C@H](O)CC2=C[C@@H](OC2=O)[C@H](C(C)C)CC1 | inactive | inactive |
| CC(=O)O[C@H]1C/C(C)=C/CC/C(C)=C/[C@H](O)CC2=C[C@H](OC2=O)[C@@H]1C(C)C | inactive | inactive |
| C/C1=C\[C@@H](O)CC2=C[C@@H](OC2=O)[C@H](C(C)C)CC/C(C)=C/CC1 | inactive | inactive |
